{"source": "patent US7786131B2", "about": "“Pyrimido[5,4-d]pyrimidines derivatives as irreversible inhibitors of tyrosine kinases” (Warner-Lambert Company, priority 1996, dated 2010)", "key": {"[1]": {"system": "NIH 3T3 fibroblast transfected with the h-EGF receptor", "assay": "EGFR tumor xenograft in nude mice", "experimental": "Female nude mice (NCr nu/nu, Taconic Farms) 18-20 g were implanted SC with tumor fragments (approximately 30 mg) in the region of the right axilla on Day 0. […] The vehicle was 6% dimethyl acetamide in 50 mM lactate buffer, pH 4.0Tumor volumes were recorded three times per week by measuring the length and width of the individual tumors and calculating the mass in milligrams according to the formula (a×b^2)/2, where a and b are the length and width of the tumor. Percent T/C (treated/control) was calculated based on the ratio of the median tumor volume of the treated tumors compared with the median tumor volume of the control tumors on specified measurement days."}, "[2]": {"system": "A431 human epidermoid carcinoma cells", "assay": "Growth inhibition assay in A431 cells", "format": "cell-based", "conditions": "A-431, 72 hours, cell count, read-out: IC50, inhibition of proliferation in A431 cells", "procedure": "A431 human epidermoid carcinoma cells were obtained from the American Type Culture Collection, Rockville, Md. and maintained as monolayers in dMEM (Dulbecco's modified eagle medium)/F12, 50:50 (Gibco/BRL) containing 10% fetal bovine serum. […] The plates were incubated for 72 hours at 37° C. in a humidified atmosphere containing 5% CO2 in air. Cell growth was determined by cell count with a Coulter Model AM electronic cell counter (Coulter Electronics, Inc., Hialeah, Fla.)."}, "[3]": {"molecular_target": "T1, EGF receptor autophosphorylation in A431 cells (Homo sapiens, UniProt P00533)", "T1 construct": "A431 human epidermoid carcinoma cells were grown in 6-well plates; endogenous in cells; host or cells: A431 human epidermoid carcinoma cells", "T1 sequence (P00533 25-1210)": "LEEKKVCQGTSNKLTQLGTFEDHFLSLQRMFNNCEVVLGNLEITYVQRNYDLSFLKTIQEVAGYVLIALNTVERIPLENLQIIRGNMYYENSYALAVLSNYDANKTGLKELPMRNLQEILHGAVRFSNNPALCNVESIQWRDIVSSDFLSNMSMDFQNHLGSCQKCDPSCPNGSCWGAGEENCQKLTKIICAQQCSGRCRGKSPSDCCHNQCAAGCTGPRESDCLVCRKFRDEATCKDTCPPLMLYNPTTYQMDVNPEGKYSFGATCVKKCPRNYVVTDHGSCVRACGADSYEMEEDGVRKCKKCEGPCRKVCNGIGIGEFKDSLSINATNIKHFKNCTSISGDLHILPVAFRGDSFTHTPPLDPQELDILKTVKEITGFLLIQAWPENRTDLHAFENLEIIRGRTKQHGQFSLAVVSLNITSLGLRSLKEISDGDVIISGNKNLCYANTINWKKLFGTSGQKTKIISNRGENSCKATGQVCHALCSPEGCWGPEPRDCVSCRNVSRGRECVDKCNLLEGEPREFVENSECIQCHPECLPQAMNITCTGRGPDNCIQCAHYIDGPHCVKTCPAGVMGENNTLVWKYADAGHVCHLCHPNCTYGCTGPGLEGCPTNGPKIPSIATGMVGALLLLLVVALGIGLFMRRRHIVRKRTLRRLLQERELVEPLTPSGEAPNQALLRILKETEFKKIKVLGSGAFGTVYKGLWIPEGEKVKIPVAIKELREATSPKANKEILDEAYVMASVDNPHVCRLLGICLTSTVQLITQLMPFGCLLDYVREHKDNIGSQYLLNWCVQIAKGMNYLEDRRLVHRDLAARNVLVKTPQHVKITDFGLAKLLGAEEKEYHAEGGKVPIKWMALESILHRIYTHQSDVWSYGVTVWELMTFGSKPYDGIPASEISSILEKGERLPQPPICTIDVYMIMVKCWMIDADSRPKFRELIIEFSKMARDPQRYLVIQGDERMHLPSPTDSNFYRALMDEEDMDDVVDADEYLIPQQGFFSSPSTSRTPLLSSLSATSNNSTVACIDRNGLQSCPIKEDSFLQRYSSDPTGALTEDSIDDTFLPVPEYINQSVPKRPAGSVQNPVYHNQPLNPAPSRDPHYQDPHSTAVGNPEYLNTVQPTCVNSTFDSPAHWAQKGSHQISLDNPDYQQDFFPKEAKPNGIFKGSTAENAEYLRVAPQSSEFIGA", "assay": "Autophosphorylation assay in A431 cells", "format": "cell-based", "conditions": "EGF-stimulated EGFR autophosphorylation in A431 cells", "experimental": "(§1) Extracts were made by lysing the monolayers in 0.2 mL of boiling Laemlli buffer (2% sodium dodecyl sulfate, 5% beta-mercaptoethanol, 10% glycerol and 50 mM tris[hydroxymethyl]aminomethane (Tris), pH 6.8), and the lysates were heated to 100° C. for 5 minutes. Proteins in the lysate were separated by polyacrylamide gel electrophoresis and electrophoretically transferred to nitrocellulose. The membrane was washed once in 10 mM Tris, pH 7.2, 150 mM NaCl, 0.01% Azide (TNA), and blocked overnight in TNA containing 5% bovine serum albumin and 1% ovalbumin. The membrane was blotted for 2 hours with antiphosphotyrosine antibody (UBI, 1 μg/mL in blocking buffer) and then washed twice in TNA, once in TNA containing 0.05% Tween-20 detergent and 0.05% nonidet P-40 detergent and twice in TNA. […] Band intensities were determined with a Molecular Dynamics laser densitometer.\nDuplicate sets of cells were treated with a range of concentrations of the designated compound to be tested as an inhibitor for 15 minutes. The cells were then stimulated with 100 ng/mL of EGF for 5 minutes and extracts made as described under the Western Blotting Procedure."}, "[4]": {"molecular_target": "T1, EGF receptor autophosphorylation in A431 cells", "assay": "Irreversibility test: recovery of EGF receptor autophosphorylation after washout", "format": "cell-based", "conditions": "for remaining activity at 2 µM: A-431, A431 cells treated 2 hours with 2 μM, read-out: % of Control Autophosphorylation", "experimental": "as §1\nDuplicate sets of cells were treated with 2 μM of designated compound to be tested as an irreversible inhibitor for either 1 or 2 hours. One set of cells was then stimulated with 100 ng/mL of EGF for 5 minutes and extracts made as described under the western blotting procedure. The other set of cells were washed free of the compound with warmed serum-free media, incubated for 2 hours, washed again, incubated another 2 hours, washed again, and then incubated a further 4 hours. This set of cells was then stimulated with EGF and extracts made similar to the first set of cells."}, "[5]": {"molecular_target": "EGF receptor tyrosine kinase (Homo sapiens, UniProt P00533)", "sequence (P00533 25-1210)": "as above", "assay": "Tyrosine kinase assay, isolated EGF receptor tyrosine kinase", "format": "biochemical"}, "[6]": {"molecular_target": "T2, insulin receptor intracellular kinase domain (Homo sapiens, UniProt P06213)", "T2 construct": "Assays using intracellular kinase domains of PDGF, FGF, and insulin receptors", "T2 sequence (P06213 1023-1298 limits assumed)": "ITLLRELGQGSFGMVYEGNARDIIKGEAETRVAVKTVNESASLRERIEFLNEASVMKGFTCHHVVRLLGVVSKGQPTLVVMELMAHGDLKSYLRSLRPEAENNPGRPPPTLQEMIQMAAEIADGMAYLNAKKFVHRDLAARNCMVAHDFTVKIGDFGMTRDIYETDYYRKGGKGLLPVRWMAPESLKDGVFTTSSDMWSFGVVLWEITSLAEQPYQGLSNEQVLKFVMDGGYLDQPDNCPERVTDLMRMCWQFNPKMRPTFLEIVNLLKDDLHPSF", "assay": "Tyrosine kinase assay, insulin receptor", "format": "biochemical"}, "[7]": {"molecular_target": "T3, FGF receptor intracellular kinase domain (FGF1) (Homo sapiens, UniProt P11362)", "T3 construct": "Assays using intracellular kinase domains of PDGF, FGF, and insulin receptors", "T3 sequence (P11362 478-767 limits assumed)": "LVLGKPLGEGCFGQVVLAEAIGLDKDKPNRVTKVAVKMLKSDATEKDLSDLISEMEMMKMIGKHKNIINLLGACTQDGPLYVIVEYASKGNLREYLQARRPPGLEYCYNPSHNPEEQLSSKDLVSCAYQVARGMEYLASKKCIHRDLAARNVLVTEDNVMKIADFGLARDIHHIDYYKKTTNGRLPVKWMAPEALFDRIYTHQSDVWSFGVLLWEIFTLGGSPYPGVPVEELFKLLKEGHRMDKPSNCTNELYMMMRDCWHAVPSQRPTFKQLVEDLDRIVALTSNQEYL", "assay": "Tyrosine kinase assay, FGF receptor", "format": "biochemical"}, "c-src tyrosine kinase": {"molecular_target": "c-src tyrosine kinase (UniProt P00523)", "assay": "Tyrosine kinase assay, c-src", "format": "biochemical"}}, "note": "Where two headings read alike, the source gives them in different places.", "data": [{"smiles": "C=CC(=O)Nc1ccc2c(Nc3cccc(Br)c3)ncnc2c1", "note": "[Example 3, N-[4-(3-Bromo-phenylamino)-quinazolin-7-yl]acrylamide]", "values": [{"measurement": "% T/C", "setting": "[1]; 3 mg/kg/injection, Day 7", "result": 115, "unit": "%"}, {"measurement": "% T/C", "setting": "[1]; 3 mg/kg/injection, Day 10", "result": 138, "unit": "%"}, {"measurement": "% T/C", "setting": "[1]; 3 mg/kg/injection, Day 12", "result": 113, "unit": "%"}, {"measurement": "% T/C", "setting": "[1]; 30 mg/kg/injection, Day 7", "result": 48, "unit": "%"}, {"measurement": "% T/C", "setting": "[1]; 30 mg/kg/injection, Day 10", "result": 66, "unit": "%"}, {"measurement": "% T/C", "setting": "[1]; 30 mg/kg/injection, Day 12", "result": 53, "unit": "%"}, {"measurement": "% T/C", "setting": "[1]; 100 mg/kg/injection, Day 7", "result": 57, "unit": "%"}, {"measurement": "% T/C", "setting": "[1]; 100 mg/kg/injection, Day 10", "result": 70, "unit": "%"}, {"measurement": "% T/C", "setting": "[1]; 100 mg/kg/injection, Day 12", "result": 57, "unit": "%"}, {"measurement": "activity against tumor growth", "setting": "[1]; 10 or 3 mg/kg/injection IP every 12 hours Days 3-7", "result": "No activity"}, {"measurement": "growth delay", "setting": "[1]; EGFR tumor, IP bid Days 1 through 13, 75 mg/kg", "result": 5, "unit": "days"}, {"measurement": "activity", "setting": "[1]; EGFR tumor, IP bid Days 1 through 13, 300 mg/kg", "result": "no activity"}, {"measurement": "growth delay", "setting": "[1]; EGFR tumor, IP bid Days 1 through 13, 190 and 120 mg/kg", "result": 1, "unit": "days"}, {"measurement": "growth delay", "setting": "[1]; EGFR tumor, IP bid Days 3 through 7, 30 mg/kg", "result": 2.5, "unit": "days"}, {"measurement": "growth delay", "setting": "[1]; EGFR tumor, IP bid Days 3 through 7, 100 mg/kg", "result": 4, "unit": "days"}, {"measurement": "weight loss, lethality, or clinical signs of toxicity", "setting": "[1]; any dose level, IP every 12 hours Days 3-7", "result": "No weight loss, lethality, or clinical signs of toxicity"}, {"measurement": "IC50", "setting": "[2]", "result": "300 ± 90", "unit": "nM"}, {"measurement": "IC50", "setting": "[3]", "result": 14, "unit": "nM"}, {"measurement": "% Control After 2-Hour Incubation", "setting": "[4]; A431 cells, 2 μM inhibitor, EGFR autophosphorylation", "result": 1, "unit": "%"}, {"measurement": "% Control After 8 Hours in Drug-Free Media Incubation", "setting": "[4]; A431 cells, 2 μM inhibitor, washed, 8 hours drug-free", "result": 13, "unit": "%"}, {"measurement": "time required for return of 50% of the activity", "setting": "[4]; A431 cells, 2 μM, drug-free media (Table 3)", "result": 21, "unit": "h"}, {"measurement": "remaining activity at 2 µM", "setting": "[4]; 0 hours in drug-free media", "result": 0, "unit": "%"}, {"measurement": "remaining activity at 2 µM", "setting": "[4]; 4 hours in drug-free media", "result": 12, "unit": "%"}, {"measurement": "remaining activity at 2 µM", "setting": "[4]; 8 hours in drug-free media", "result": 23, "unit": "%"}, {"measurement": "remaining activity at 2 µM", "setting": "[4]; 23 hours in drug-free media", "result": 54, "unit": "%"}, {"measurement": "inhibition at 2 µM", "setting": "[4]; A-431, A431 cells, 2 μM, end of 8 hours washoff, read-out: inhibition of the enzyme (kinase activity) after washoff", "result": 89, "unit": "%"}, {"measurement": "specificity for the EGF receptor tyrosine kinase as opposed to other tyrosine kinase enzymes", "setting": "[5]; Table 4", "result": "very high specificity"}, {"measurement": "IC50", "setting": "[5]; Table 4, read-out: EGFR IC50", "result": 0.36, "unit": "nM"}, {"measurement": "IC50", "setting": "[5]; isolated EGFR kinase, read-out: EGFR Tyrosine Kinase IC50", "result": 0.36, "unit": "nM"}, {"measurement": "IC50", "setting": "[6]", "result": "> 50", "unit": "µM"}, {"measurement": "IC50", "setting": "[7]", "result": "> 50", "unit": "µM"}, {"measurement": "IC50", "setting": "c-src tyrosine kinase", "result": "> 2500", "unit": "nM"}]}]}
